Values quoted from earlier work as cited in patent publication US20170080049A1, “MEDICINE AGAINST GROWTH FAILURE INDUCED BY ADMINISTRATION OF STEROID” (DAIICHI SANKYO COMPANY, LIMITED, priority 2014, published 2017).
Positions of bridges follow the written chain, without caps; N, C: chain ends. No end group written: not given here.

Assays:
normal mice = conditions: continuous intravenous administration, normal mice (Non Patent Literature 9, 10); cited from earlier work
NPR-B = target: T1, NPR-B (Homo sapiens, UniProt P20594); conditions: Furuya et al. 1992; US 2010-305031; cited from earlier work
T1 sequence (P20594 23-1047): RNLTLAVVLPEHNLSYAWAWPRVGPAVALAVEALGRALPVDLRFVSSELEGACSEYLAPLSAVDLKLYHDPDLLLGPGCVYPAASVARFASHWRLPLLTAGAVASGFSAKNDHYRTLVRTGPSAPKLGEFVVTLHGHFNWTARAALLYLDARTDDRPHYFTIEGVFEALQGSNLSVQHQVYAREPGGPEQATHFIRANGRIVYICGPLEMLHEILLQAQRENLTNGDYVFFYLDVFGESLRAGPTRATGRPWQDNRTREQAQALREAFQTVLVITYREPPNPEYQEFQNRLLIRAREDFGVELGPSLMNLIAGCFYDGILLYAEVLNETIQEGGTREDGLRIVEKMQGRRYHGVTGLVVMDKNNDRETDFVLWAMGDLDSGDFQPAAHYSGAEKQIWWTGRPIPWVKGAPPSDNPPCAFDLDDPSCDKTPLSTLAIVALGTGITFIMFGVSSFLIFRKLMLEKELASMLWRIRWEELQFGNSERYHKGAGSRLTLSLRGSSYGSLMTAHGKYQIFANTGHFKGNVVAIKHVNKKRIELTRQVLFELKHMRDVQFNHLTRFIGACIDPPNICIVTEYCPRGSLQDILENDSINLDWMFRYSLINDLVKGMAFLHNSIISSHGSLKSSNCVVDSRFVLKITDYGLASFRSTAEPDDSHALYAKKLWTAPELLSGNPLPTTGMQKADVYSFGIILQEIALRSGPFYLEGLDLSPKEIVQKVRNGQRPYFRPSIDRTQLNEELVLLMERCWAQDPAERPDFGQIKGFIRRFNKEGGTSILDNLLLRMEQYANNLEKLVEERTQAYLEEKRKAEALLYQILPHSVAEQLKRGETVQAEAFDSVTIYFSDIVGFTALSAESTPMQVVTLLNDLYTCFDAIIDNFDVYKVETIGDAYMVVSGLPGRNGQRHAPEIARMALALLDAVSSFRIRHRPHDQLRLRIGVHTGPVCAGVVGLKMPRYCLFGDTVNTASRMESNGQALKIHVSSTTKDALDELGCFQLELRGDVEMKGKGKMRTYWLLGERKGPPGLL

Row | Substance | elongation of bone (in words) (normal mice) | NPR-B agonist activity compared with hCNP-22 (in words) (NPR-B)
1 | CNP-22: human-derived CNP-22 consisting of 22 amino acids, GLSKGCFGLK LDRIGSMSGL GC (GLSKGCFGLKLDRIGSMSGLGC) | promoted | 
2 | CNP6-22: peptide consisting of only the ring structure (amino acid Nos. 6 to 22 of SEQ ID NO: 1) (CFGLKLDRIGSMSGLGC; disulfide 1-17 (inferred)) |  | almost the same NPR-B agonist activity as that of hCNP-22
